PubChem BioAssay AID248 (DTP/NCI, 2004)
Values joined by “and” are separate entries in the source; they are usually repeats but may differ in a detail not shown here. Equal values may be shown once. Toxic doses and inconclusive results are not listed. Cut-off read from the data, not from the text of the source: active = T/C of 150% or more; inactive = T/C below 125%.

Test system: L1210 leukemia ip in BDF1 mice, survival T/C
Assay: NCI In Vivo Anticancer Drug Screen. Data for tumor model L1210 Leukemia (intraperitoneal) in B6D2F1 (BDF1) mice
Details: endpoint: mean survival time, higher = longer survival
Outline: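 In this screen, tumor-bearing mice given compound are compared to those given vehicle, and their survival values are reported as a treated-to-control quotient.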

[1] = dose: 100.0 mg/kg/injection, schedule: Q01DX001 (ip), vehicle: carboxymethylcellulose (CMC)
[2] = dose: 100.0 mg/kg/injection, schedule: Q04DX003 (ip), vehicle: Klucel (hydroxypropylcellulose) (HPC)
[3] = dose: 200.0 mg/kg/injection, schedule: Q04DX003 (ip), vehicle: Klucel (hydroxypropylcellulose) (HPC)
[4] = dose: 400.0 mg/kg/injection, schedule: Q04DX003 (ip), vehicle: Klucel (hydroxypropylcellulose) (HPC)
[5] = dose: 50.0 mg/kg/injection, schedule: Q04DX003 (ip), vehicle: saline with Tween-80
[6] = dose: 200.0 mg/kg/injection, schedule: Q01DX001 (ip), vehicle: carboxymethylcellulose (CMC)
[7] = dose: 400.0 mg/kg/injection, schedule: Q01DX001 (ip), vehicle: carboxymethylcellulose (CMC)
[8] = dose: 100.0 mg/kg/injection, schedule: Q01DX001 (ip), vehicle: saline
[9] = dose: 200.0 mg/kg/injection, schedule: Q01DX001 (ip), vehicle: saline
[10] = dose: 400.0 mg/kg/injection, schedule: Q01DX001 (ip), vehicle: saline
[11] = dose: 100.0 mg/kg/injection, schedule: Q01DX009 (ip), vehicle: Klucel (hydroxypropylcellulose) (HPC)
[12] = dose: 200.0 mg/kg/injection, schedule: Q01DX009 (ip), vehicle: Klucel (hydroxypropylcellulose) (HPC)
[13] = dose: 400.0 mg/kg/injection, schedule: Q01DX009 (ip), vehicle: Klucel (hydroxypropylcellulose) (HPC)
[14] = dose: 100.0 mg/kg/injection, schedule: Q04DX002 (ip), vehicle: Klucel (hydroxypropylcellulose) (HPC)

Measured: T/C

CN(C)CCCNCC(=O)N1CCN(C(=O)CNCCCN(C)C)CC1
inactive: dose: 50.0 mg/kg/injection, schedule: Q01DX001 (ip), vehicle: carboxymethylcellulose (CMC) 106 % of control | [1] 106 % of control

CCOC(=O)n1ccc2nc3ccccc3cc21
inactive: dose: 100.0 mg/kg/injection, schedule: Q01DX001 (ip), vehicle: Klucel (hydroxypropylcellulose) (HPC) 100 % of control | dose: 200.0 mg/kg/injection, schedule: Q01DX001 (ip), vehicle: Klucel (hydroxypropylcellulose) (HPC) 105 % of control | dose: 400.0 mg/kg/injection, schedule: Q01DX001 (ip), vehicle: Klucel (hydroxypropylcellulose) (HPC) 90 % of control

CCOC(OCC)C(O)CNc1ccc([N+](=O)[O-])cc1[N+](=O)[O-] (stereo not given)
inactive: [2] 98 % of control | [3] 101 % of control | [4] 103 % of control

FC(F)(F)c1ccc(-c2ccc(OCCN3CCCC3)cc2)cc1
inactive: dose: 4.68 mg/kg/injection, schedule: Q01DX009 (ip), vehicle: saline 97 % of control | dose: 9.37 mg/kg/injection, schedule: Q01DX009 (ip), vehicle: saline 92 % of control | dose: 18.75 mg/kg/injection, schedule: Q01DX009 (ip), vehicle: saline 94 % of control and 89 % of control | dose: 37.5 mg/kg/injection, schedule: Q01DX009 (ip), vehicle: saline 90 % of control | dose: 37.5 mg/kg/injection, schedule: Q04DX003 (ip), vehicle: saline 93 % of control | dose: 75.0 mg/kg/injection, schedule: Q04DX003 (ip), vehicle: saline 102 % of control | dose: 150.0 mg/kg/injection, schedule: Q04DX003 (ip), vehicle: saline 87 % of control

O=C(CBr)OCC1CC2C=CC1C2 (stereo not given)
inactive: dose: 13.3 mg/kg/injection, schedule: Q01DX Z (ip), vehicle: methylcellulose (MC) 93 % of control | dose: 20.0 mg/kg/injection, schedule: Q01DX Z (ip), vehicle: methylcellulose (MC) 96 % of control | dose: 30.0 mg/kg/injection, schedule: Q01DX Z (ip), vehicle: methylcellulose (MC) 90 % of control

COC(=O)c1ccc(Cn2ccc(=O)[nH]c2=O)cc1
inactive: [5] 92 % of control | dose: 100.0 mg/kg/injection, schedule: Q04DX003 (ip), vehicle: saline with Tween-80 95 % of control | dose: 200.0 mg/kg/injection, schedule: Q04DX003 (ip), vehicle: saline with Tween-80 89 % of control

COC(=O)c1n[nH]c(C2OCC3OC(C)(C)OC32)c1Br (stereo not given)
inactive: dose: 100.0 mg/kg/injection, schedule: Q01DX005 (ip), vehicle: saline 100 % of control | dose: 200.0 mg/kg/injection, schedule: Q01DX005 (ip), vehicle: saline 91 % of control

S=c1nc[nH]c2[nH]ncc12
inactive: [1] 108 % of control | [6] 93 % of control | [7] 93 % of control

N/C(=N\O)c1c(Br)n(C2OC(CO)C(O)C2O)c2ncnc(N)c12 (stereo not given)
inactive: [8] 98 % of control | [9] 97 % of control | [10] 106 % of control

Cc1c2oc3c(C)ccc(C(=O)NCCN4CCOCC4)c3nc-2c(C(=O)NCCN2CCOCC2)c(N)c1=O
inactive: dose: 100.0 mg/kg/injection, schedule: Q04DX002 (ip), vehicle: saline with Tween-80 98 % of control | dose: 200.0 mg/kg/injection, schedule: Q04DX002 (ip), vehicle: saline with Tween-80 92 % of control

O=C1c2cc(Cl)cc(Cl)c2-c2c1cc(Cl)cc2[N+](=O)[O-]
inactive: [11] 97 % of control | [2] 97 % of control | [12] 95 % of control | [3] 97 % of control | [13] 97 % of control | [4] 92 % of control

COc1ccc(COC(=O)Nc2ccc(Br)cc2)c(OC)c1
inactive: [11] 98 % of control | [12] 104 % of control | [13] 101 % of control

COc1cc(C)c2cccc(OC)c2n1
inactive: [11] 114 % of control | [2] 105 % of control | [12] 108 % of control | [3] 90 % of control | [13] 98 % of control | [4] 94 % of control

O=C(c1ccccc1)C1(Br)CCCCC1
inactive: [11] 96 % of control | dose: 100.0 mg/kg/injection, schedule: Q01DX009 (ip), vehicle: saline 95 % of control | [12] 96 % of control | [13] 93 % of control | dose: 400.0 mg/kg/injection, schedule: Q01DX009 (ip), vehicle: saline 101 % of control

CC(C)(C)OC(=O)NN1Cc2ccccc2Cc2ccccc2C1
inactive: [1] 96 % of control | [6] 91 % of control | [7] 96 % of control

c1ccc2c(c1)CCc1c-2[nH]c2c1ccc1ccccc12
inactive: [8] 91 % of control | [9] 111 % of control | [10] 94 % of control

O=C1C2C3CCC(O3)C2C(=O)N1C(=O)N1C(=O)C2C3CCC(O3)C2C1=O (stereo not given)
inactive: dose: 25.0 mg/kg/injection, schedule: Q04DX002 (ip), vehicle: Klucel (hydroxypropylcellulose) (HPC) 101 % of control | dose: 50.0 mg/kg/injection, schedule: Q04DX002 (ip), vehicle: Klucel (hydroxypropylcellulose) (HPC) 94 % of control | [14] 111 % of control and 89 % of control

CCCP(CCC)N(CC)CC
inactive: dose: 100.0 mg/kg/injection, schedule: Q04DX003 (ip), vehicle: saline 107 % of control | dose: 200.0 mg/kg/injection, schedule: Q04DX003 (ip), vehicle: saline 101 % of control | dose: 400.0 mg/kg/injection, schedule: Q04DX003 (ip), vehicle: saline 104 % of control

N#C/C(=C\c1ccc(-c2ccccc2)cc1)c1ccc(Cl)cc1
inactive: dose: 3.13 mg/kg/injection, schedule: Q01DX009 (ip), vehicle: saline with Tween-80 98 % of control | dose: 6.25 mg/kg/injection, schedule: Q01DX009 (ip), vehicle: saline with Tween-80 92 % of control | dose: 12.5 mg/kg/injection, schedule: Q01DX009 (ip), vehicle: saline with Tween-80 93 % of control and 87 % of control | dose: 12.5 mg/kg/injection, schedule: Q04DX003 (ip), vehicle: saline with Tween-80 95 % of control | dose: 25.0 mg/kg/injection, schedule: Q04DX003 (ip), vehicle: saline with Tween-80 95 % of control | [5] 93 % of control

Cc1cccc(C)c1OC(=O)Nc1ccccc1
inactive: [14] 101 % of control | dose: 200.0 mg/kg/injection, schedule: Q04DX002 (ip), vehicle: Klucel (hydroxypropylcellulose) (HPC) 97 % of control | dose: 400.0 mg/kg/injection, schedule: Q04DX002 (ip), vehicle: Klucel (hydroxypropylcellulose) (HPC) 101 % of control

C/C=C/C[P+](CC)(c1ccccc1)c1ccccc1
inactive: dose: 3.13 mg/kg/injection, schedule: Q01DX009 (ip), vehicle: saline 89 % of control

CCOP(=O)(OCC)N1C(=O)CCC1=O
inactive: dose: 6.25 mg/kg/injection, schedule: Q04DX003 (ip), vehicle: saline 105 % of control | dose: 12.5 mg/kg/injection, schedule: Q04DX003 (ip), vehicle: saline 100 % of control | dose: 13.75 mg/kg/injection, schedule: Q01DX009 (ip), vehicle: saline 88 % of control | dose: 25.0 mg/kg/injection, schedule: Q04DX003 (ip), vehicle: saline 103 % of control | dose: 27.5 mg/kg/injection, schedule: Q01DX009 (ip), vehicle: saline 94 % of control | dose: 35.0 mg/kg/injection, schedule: Q04DX003 (ip), vehicle: saline 102 % of control | dose: 55.0 mg/kg/injection, schedule: Q04DX003 (ip), vehicle: saline 101 % of control
